Laboratory results reported in PubChem BioAssay (NCI).
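Test compounds were applied to cells in 96-well plates for 48 hours at 5 doses. Abbreviation: GI50, concentration required for 50% inhibition of growth. TGI is the concentration that stops growth completely.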 *1 amine or outer side, *2 acyl side, *3 side chain or, on linkers, in order; H or OH if unused. Where a SMILES comes first, the peptide text is derived from it. Bridges are numbered along the chain shown (N, C = ends). [ ]: non-standard residue; d: D form. The star is where a group is joined. ξ: configuration not given here. Phe(3,5-F2) = N[C@@H](Cc1cc(F)cc(F)c1)C(=O)O; ξThr(3S) = C[C@H](O[*:3])C(N[*:1])C(=O)[*:2]; X25 = C[C@H]1OCCN([*:1])[C@@H]1C(=O)[*:2]; Phe(3-F) = N[C@@H](Cc1cccc(F)c1)C(=O)O; Pro(4R-Me) = C[C@H]1CN[C@H](C(=O)O)C1; aThr = C[C@H](O)[C@H](N)C(=O)O; X24 = O=S(=O)(F)Oc1ccc(N*)cc1; Pip = O=C(O)[C@@H]1CCCCN1; X8 = CCc1ccc(N*)c(F)c1; CO = O=C([*:1])[*:2]

System: MDA-MB-468 breast
Assay: DTP human tumour cell line panel, 48 h

Structure (SMILES)	GI50 [nM]	TGI [nM]
CCc1ccc(Oc2c(-c3ccc(OCc4ccc(Cl)cc4)cc3O)nn(C)c2C(F)(F)F)cc1	337	1620
O=C(CI)NC(=O)NC(=O)NCc1ccccc1	2120	4660
CCc1ccc(NC(=O)N[C@@H](Cc2cccc(F)c2)C(=O)N[C@@H]2C(=O)N3CCC[C@H]3C(=O)N3CCCC[C@H]3C(=O)N[C@@H](C)C(=O)N3C[C@H](C)C[C@H]3C(=O)O[C@H]2C)c(F)c1 ({X8-CO}-[Phe(3-F)][aThr]P[Pip]A[Pro(4R-Me)]; ester 2-C)	129	799
NC(=O)c1nc(-c2c(F)cccc2Cl)oc1Nc1ccc(C(=O)N2CCOCC2)cc1	4330	36700
NC1=NC(c2ccccc2Cl)c2c(n[nH]c2N)N1 (centres undefined)	11100	99600
Cc1cc(NC(=O)NC(=O)c2ccccc2NC(=O)CN(C)C)ccc1Oc1ncc(Br)cn1	3620	> 100000
OCc1ccc(-c2ccc(-c3ccc(CO)o3)o2)o1	764	3050
Cc1ccc2ccc3c4ccccc4ccc3c2c1	16100	40400
C[C@@H]1C[C@H]2C(=O)O[C@@H](C)C(NC(=O)[C@H](Cc3cc(F)cc(F)c3)NC(=O)Nc3ccc(OS(=O)(=O)F)cc3)C(=O)N3CCC[C@H]3C(=O)N3CCO[C@H](C)[C@H]3C(=O)N[C@@H](CO)C(=O)N2C1 (stereo partly drawn) ({X24-CO}-[Phe(3,5-F2)][ξThr(3S)]P[X25]S[Pro(4R-Me)]; ester 2-C)	416	5810
O=c1[nH]c(=S)[nH]c(O)c1/C=C1\C=Nc2ccccc21	14400	31100
CCN1C(=O)N(CC)C2C1NC(=S)N2/N=C/C=C/c1ccccc1 (centres undefined)	54.6	–
O=C1Nc2ccc(-c3cccnc3)cc2/C1=C/c1cc(Br)c(O)c(Br)c1	6020	16100
N#Cc1cc(F)cc(Oc2ccc(S(=O)(=O)C(F)F)c3c2CC(F)(F)[C@H]3O)c1	16600	66900
O=c1[nH]c2ccccc2cc1-c1nnc(Cc2ccccc2)o1	2290	9870
COC(=O)[C@]12CC[C@@H](C)[C@H](C)[C@@H]1C1=CC[C@@H]3[C@@]4(C)C(C=O)=C[C@@](C)(COS(C)(=O)=O)C4=CC[C@@]3(C)[C@]1(C)CC2	247	752
Nc1ncnc2c1c(-c1ccc(Oc3ccccc3)cc1)nn2CC1SSCC1O (centres undefined)	801	2020
CCN(CC)CCCC(Nc1c2ccc(Cl)cc2nc2ccc(OC)cc12)c1ccc(Cl)cc1 (centres undefined)	352	1190
CCOC(=O)[C@@H](C)C[C@H](Cc1ccccc1)NC(=O)c1csc([C@@H](C[C@H](C(C)C)N(C)C(=O)CNC(=O)[C@H]2CCCCN2C)OC(C)=O)n1	216	736
C/C(=N/NC(N)=S)c1ccc(Nc2nc(SCC(C)C)nc(-c3ccc(F)cc3)c2C#N)cc1	1060	7700
CCOC(=O)c1cc(C(=O)c2ccc(OC)c(OC)c2)n2c1ccc1ccc3cccnc3c12	2830	> 100000
CN(C)CCCOc1ccc(NC2=C(Cl)C(=O)C(Nc3ccc(OCCCN(C)C)cc3)=C(Cl)C2=O)cc1	360	1260
O=C(Nc1ccc(-n2cc(-c3ccncc3)c(-c3ccc(Cl)c(O)c3)n2)cc1)c1cc(C(F)(F)F)cc(C(F)(F)F)c1	2160	7600
O=C(Nc1nc2ccc(S(=O)(=O)Nc3ccc(C4(C(F)(F)F)CC4)cc3)cc2[nH]1)c1cnccn1	515	5740

Structure (SMILES)	GI50 [nM]	TGI [nM]
CC[n+]1c(-c2ccccc2)c2cc(N)ccc2c2ccc(N)cc21	160	609
O=C(Nc1ccc(-n2cc(-c3ccncc3)c(-c3ccc(O)c(Cl)c3)n2)cc1)Nc1cc(C(F)(F)F)cc(C(F)(F)F)c1	3280	13200
COc1ccc(-c2cnc(-c3ccncc3-c3cccc(OC)c3)o2)cc1	178	10400
COc1ccc([C@@]23Oc4cc(OC)cc(OC)c4[C@]2(O)[C@H](O)[C@H](C(=O)N(C)C)[C@H]3c2ccccc2)cc1	15.1	141
N#CN1CC[C@H](C(=O)Nc2ncc(-c3ccccc3)s2)C1	177	423
CN(C)CCNC(=O)Nc1ccc(N(C)c2ccnc(Nc3ccc(CS(C)(=O)=O)cc3)n2)cc1	> 13300	> 25000
O=C(NNc1nc2cc(F)ccc2n2c(CN3CCC(O)C3)ccc12)c1cnccn1 (centres undefined)	815	7630
CN(C)C1C(=O)C(C(N)=O)=C(O)C2(O)C(=O)C3=C(O)c4c(O)cccc4C(C)(O)C3CC12.[Cl][Sb]([Cl])[Cl] (centres undefined)	2500	8830
COc1cc(OC)c(S(N)(=O)=O)cc1C(=O)/C=C/c1ccc(C)cc1	1960	7030
COc1cccc(-c2cc(=O)c3cc(N4CCN(C)CC4)ccc3[nH]2)c1	6030	> 100000
Cc1ccc(C(=O)Nc2ccc(Oc3cc4cnn(C)c4cc3-c3cn[nH]c3)c(F)c2)c(=O)n1-c1ccc(F)cc1	3200	> 100000
Cn1cc(-c2ccc3ncc(-c4ccc(CC(=O)Nc5cc(C(C)(C)C)nn5C)cc4)cc3c2)cn1	799	> 20000
CC(=O)Nc1cccc(C#Cc2cncnc2Nc2ccc(OCc3cccc(F)c3)c(Cl)c2)c1	1140	5670
Cc1ccccc1Nc1cc(O)c2c(=O)cc(-c3ccccc3)oc2c1	379	3030
COC(=O)c1ccc(NC(N)=NCCC(C)(C)c2ccc(C(F)(F)F)cc2)nc1	1100	2790
C#COc1cccc(Nc2ncnc3cc(NC(=O)[C@@H](C)Cl)ccc23)c1	13500	50800
C[C@]12CCc3nc(Nc4ccc(O)cc4)sc3C1=CC[C@@H]1[C@@H]2CC[C@]2(C)/C(=N/NC(N)=S)CC[C@@H]12	1300	3020
S=C(Sc1ccc(Cl)cc1)Sc1ccc(Cl)cc1	2300	6900
CO[C@H]1C(=O)[C@]2(C)[C@@H](OC)C[C@H]3OC[C@@]3(OC(C)=O)[C@H]2[C@H](OC(=O)c2ccccc2)[C@]2(O)C[C@H](OC(=O)[C@H](O)[C@@H](NC(=O)OC(C)(C)C)c3ccccc3)C(C)=C1C2(C)C	< 10	419
Nc1c(C(=O)Nc2ccccc2)sc2nc3c(cc12)C(=O)CCC3	161	611
COc1cc([C@@H]2c3cc4c(cc3[C@H](SC(=N)N)[C@H]3COC(=O)[C@H]23)OCO4)cc(OC)c1OC	106	2570
C/C(=C/CCC(C)[C@@H]1CC[C@]2(C)C3=C(CC[C@@]12C)[C@@]1(C)CCC(=O)C(C)(C)[C@@H]1CC3)C(=O)O (some centres undefined)	1110	2710
